Source: patent US20160271097A1, “FORMULATION OF OLOPATADINE” (NEPHRON PHARMACEUTICALS CORPORATION, priority 2013, published 2016)

Test: Dissolution of olopatadine in the formulation (minimum PVA)
Assay type: physicochemical
Settings: Olopatadine about 2.0 mg/mL
Protocol: Initial experiments were conducted to examine the possible concentration ranges for the organic modifiers which would initially solubilize Olopatadine during formulation and maintain the solution stability such that no crystallization of the drug product would occur. An experiment was carried out to determine the minimum amount of PVA needed to obtain the total dissolution of Olopatadine in the formulation. The minimum amount of PVA determined to be effective in solubilizing the drug substance during formulation and which prevented crystal growth in the drug product was 0.5%. Concentrations of such PVA below 0.5% are insufficient to permit dissolution of Olopatadine concentrations of about 2.0 mg/mL. Concentrations at or […] were susceptible to the drug substance starting to dissolve but then precipitating back out of solution during formulation.

For `CN(C)CC/C=C1/c2ccccc2COc2ccc(CC(=O)O)cc21` [Olopatadine, {(11Z)-11-[3-(dimethylamino)propylidene]-6,11-dihydrodibenzo[b,e]oxepin-2-yl} acetic acid], the “Minimum amount of PVA effective in solubilizing the drug substance and preventing crystal growth” value was 0.5%.
